Laboratory results: patent US20240381872A1, “SUBSTITUTED 2,3-DIHYDRO[1,3]THIAZOLO[4,5-B]PYRIDINES, SALTS THEREOF AND THEIR USE AS HERBICIDALLY ACTIVE SUBSTANCES” (BAYER AKTIENGESELLSCHAFT, priority 2021, published 2024)

Key:
Assay type in all cases: in vivo
Lolium rigidum (LOLRI) [1] = experiment: Herbicidal pre-emergence action, section A (Table A5); settings: visual grading after ca. 3 weeks vs untreated controls
Procedure, shortened: (§1)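 Weeds sown in sandy loam, then WP or EC formulations applied pre-emergence to the soil surface as aqueous spray with 0.5% additive at 600 L water/ha. Pots kept in the greenhouse, and damage graded visually after ~3 weeks as % effect against untreated controls (100% = dead).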

Veronica persica (VERPE) = experiment: Herbicidal pre-emergence action, section A (Table A10); settings: for pest or weed control at 1280 g/ha: Veronica persica, 504 h, read-out: pre-emergence activity against VERPE in %
Procedure, shortened: as §1

Poa annua (POAAN) = experiment: Herbicidal post-emergence action, section B (Table B7); settings: visual rating about 3 weeks after treatment vs untreated controls
Procedure, shortened: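 Percent effect, judged by eye against untreated controls (0% = like control, 100% = plants dead), was recorded about 3 weeks after a foliar spray. The spray, at 600 liters per hectare with 0.5% additive, was applied to one-leaf-stage plants grown in sandy loam.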

[2] = tested on: Abutilon theophrasti (ABUTH); experiment: Herbicidal pre-emergence action, section C (Table C1); settings: visual grading after ca. 3 weeks vs untreated controls
Source text: (§2) Seeds of mono- and dicotyledonous weed plants and crop plants were sown, in plastic or organic planting pots, in sandy loam and covered with soil. The compounds according to the invention, formulated in the form of wettable powders (WP) or as emulsifiable concentrates (EC), were applied to the surface of the covering soil as aqueous suspension or emulsion, with the addition of 0.5% of an additive, at an application rate of 600 l of water/ha (converted). Following treatment, the pots were placed in a greenhouse and kept under optimum growth conditions for the test plants. The visual grading of the damage to the test plants was carried out after ca. 3 weeks in comparison to untreated controls (herbicidal effect in percent (%): 100% effect=plants have died off, 0% effect=as control plants).

Lolium rigidum (LOLRI) [3] = experiment: Herbicidal pre-emergence action, section C (Table C5); settings: visual grading after ca. 3 weeks; for pest or weed control at 80 g/ha: Lolium rigidum, pre-emergence, 504 h, read-out: pre-emergence activity against LOLRI in %
Source text: as §2

[4] = tested on: Abutilon theophrasti (ABUTH); experiment: Herbicidal post-emergence action, section E (Table E1); settings: assessed visually after ca. 3 weeks
Source text: Seeds of mono- and dicotyledonous weed plants and crop plants were sown, in plastic or organic planting pots, in sandy loam, covered with soil and grown in a greenhouse under controlled growth conditions. 2 to 3 weeks after sowing, the test plants were sprayed in the single-leaf stage. The compounds according to the invention, formulated in form of wettable powders (WP) or as emulsifiable concentrates (EC), were sprayed onto the green plant parts as aqueous suspension or emulsion, with the addition of 0.5% of an additive, at an application rate of 600 l of water/ha (converted). The test plants were placed in the greenhouse for ca. 3 weeks under optimum growth conditions, and then the effect of the preparations was assessed visually in comparison with untreated controls (herbicidal effect in percent (%): 100% effect=plants have died off, 0% effect=as control plants).

Glycine max (GLXMA) = experiment: Post-emergence effects on crop plants, section F (Table F4); settings: crop plant damage, application rate 80 g/ha
Procedure, shortened: (§3)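 Crop seeds were sown in sandy loam in pots and greenhouse-grown; at the single-leaf stage, 2 to 3 weeks after sowing, plants were sprayed with WP or EC formulations plus 0.5% additive at 600 l water/ha, 320 g/ha or below. Damage was scored visually about 3 weeks later versus untreated controls (0–100%).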

Zea mays (ZEAMX) = experiment: Post-emergence effects on crop plants, section F (Table F1); settings: for post-emergence activity against ZEAMX in %: crop plant damage
Procedure, shortened: as §3

[5] = tested on: Triticum aestivum (TRZAS); experiment: Pre-emergence effects on crop plants, section D (Table D2); settings: application rate 80 g/ha; visual grading after ca. 3 weeks
Procedure, shortened: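 Formulated compound (wettable powder or emulsifiable concentrate) was applied pre-emergence to the soil surface at 320 g/ha or lower. Greenhouse-grown plants were rated visually for percent damage after ca. 3 weeks.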

Compound | pre-emergence activity against LOLRI in % (Lolium rigidum (LOLRI) [1]; application rate 320 g/ha) [%] | pre-emergence activity against VERPE in % (Veronica persica (VERPE); application rate 1280 g/ha) [%] | pre-emergence activity against ABUTH in % ([2]; application rate 320 g/ha) [%] | pre-emergence activity against LOLRI in % (Lolium rigidum (LOLRI) [3]; application rate 320 g/ha) [%] | post-emergence activity against ABUTH in % ([4]; application rate 320 g/ha) [%] | post-emergence activity against POAAN in % (Poa annua (POAAN); application rate 320 g/ha) [%] | post-emergence activity against ABUTH in % ([4]; application rate 80 g/ha) [%] | post-emergence activity against ZEAMX in % (Zea mays (ZEAMX); application rate 80 g/ha) [%] | pre-emergence activity against TRZAS in % (crop plant damage) [5] [%] | also measured
COC(=O)CCC(=O)N1CSc2cc(C)c(-c3ccccc3F)nc21 [Example I-010] | 100 | 90 | 80 | 100 | 80 |  |  |  |  | post-emergence activity against POAAN in % (Poa annua (POAAN); application rate 1280 g/ha): 90%; post-emergence activity against GLXMA in % (Glycine max (GLXMA)): 0%
CCS(=O)(=O)N1CSc2cc(C)c(-c3ccccc3F)nc21 [Example I-060, 3-(ethylsulfonyl)-5-(2-fluorophenyl)-6-methyl-2,3-dihydro[1,3]thiazolo[4,5-b]pyridine] |  |  |  |  |  |  |  |  |  | pest or weed control at 1280 g/ha (Lolium rigidum (LOLRI) [1]; Lolium rigidum, pre-emergence, 504 h, application rate 1280 g/ha, read-out: pre-emergence activity against LOLRI in %): 100%; pest or weed control at 1280 g/ha (Veronica persica (VERPE); application rate 1280 g/ha): 90%; pest or weed control at 1280 g/ha (Poa annua (POAAN); Poa annua, post-emergence, 504 h, application rate 1280 g/ha, read-out: post-emergence activity against POAAN in %): 90%; pest or weed control at 80 g/ha ([2]; Abutilon theophrasti, pre-emergence, 504 h, application rate 80 g/ha, read-out: pre-emergence activity against ABUTH in %): 90%; pest or weed control at 80 g/ha (Lolium rigidum (LOLRI) [3]; application rate 80 g/ha): 100%; pest or weed control at 320 g/ha ([4]; Abutilon theophrasti, post-emergence, 504 h, application rate 320 g/ha, read-out: post-emergence activity against ABUTH in %): 80%; percent crop plant damage (phytotoxicity) on Zea mays, post-emergence at 320 g/ha (Zea mays (ZEAMX); Zea mays, 504 h, application rate 320 g/ha, read-out: post-emergence activity against ZEAMX in %): 0%
Cc1cc2c(nc1-c1ccccc1F)N(C(=O)C1(C)CC(Cl)=NO1)CS2 (stereo not drawn) [Example I-083] | 100 | 90 | 90 | 80 |  | 90 | 90 | 10 |  | 
Cc1cc2c(nc1-c1ccccc1F)N(C(=O)C13CCCC1C(Cl)=NO3)CS2 (stereo not drawn) [Example I-104] | 100 | 90 | 80 | 100 |  | 90 | 80 | 20 | 0 | 
CCOCCS(=O)(=O)N1C[S+]([O-])c2cc(C)c(-c3ccccc3F)nc21 (stereo not drawn) [Example I-127] |  |  |  |  |  |  |  |  | 20 | pest or weed control at 320 g/ha (Lolium rigidum (LOLRI) [1]; Lolium rigidum, pre-emergence, 504 h, application rate 320 g/ha, read-out: pre-emergence activity against LOLRI in %): 100%; pest or weed control at 1280 g/ha (Veronica persica (VERPE); application rate 1280 g/ha): 90%; pest or weed control at 320 g/ha (Poa annua (POAAN); Poa annua, post-emergence, 504 h, application rate 320 g/ha, read-out: post-emergence activity against POAAN in %): 90%; pest or weed control at 320 g/ha ([2]; Abutilon theophrasti, pre-emergence, 504 h, application rate 320 g/ha, read-out: pre-emergence activity against ABUTH in %): 90%; pest or weed control at 80 g/ha (Lolium rigidum (LOLRI) [3]; application rate 80 g/ha): 80%; pest or weed control at 80 g/ha ([4]; Abutilon theophrasti, post-emergence, 504 h, application rate 80 g/ha, read-out: post-emergence activity against ABUTH in %): 80%; percent crop plant damage (phytotoxicity) on Zea mays, post-emergence at 80 g/ha (Zea mays (ZEAMX); Zea mays, 504 h, application rate 80 g/ha, read-out: post-emergence activity against ZEAMX in %): 20%
COCC1(C(=O)N2CSc3cc(C)c(-c4ccccc4F)nc32)CC(Cl)=NO1 (stereo not drawn) [Example I-128] | 100 |  |  |  |  |  | 80 |  |  | pre-emergence activity against VERPE in % (Veronica persica (VERPE); application rate 320 g/ha): 90%; post-emergence activity against POAAN in % (Poa annua (POAAN); application rate 1280 g/ha): 90%; pre-emergence activity against ABUTH in % ([2]; application rate 80 g/ha): 80%; pre-emergence activity against LOLRI in % (Lolium rigidum (LOLRI) [3]; application rate 80 g/ha): 100%; post-emergence activity against ZEAMX in % (Zea mays (ZEAMX); application rate 320 g/ha): 0%
Cc1ccccc1-c1nc2c(cc1C)SCN2C(=O)C1(C)CC(Cl)=NO1 (stereo not drawn) [Example I-137] |  |  | 90 | 100 | 80 | 90 |  | 0 | 0 | pre-emergence activity against LOLRI in % (Lolium rigidum (LOLRI) [1]; application rate 1280 g/ha): 100%; pre-emergence activity against VERPE in % (Veronica persica (VERPE); application rate 320 g/ha): 90%
CC1(C(=O)N2CSc3cc(Br)c(-c4ccccc4)nc32)CC(Cl)=NO1 (stereo not drawn) [Example I-139] |  | 90 | 90 | 80 | 90 | 90 |  |  |  | pre-emergence activity against LOLRI in % (Lolium rigidum (LOLRI) [1]; application rate 1280 g/ha): 100%; post-emergence activity against ZEAMX in % (Zea mays (ZEAMX); application rate 320 g/ha): 0%; post-emergence activity against GLXMA in % (Glycine max (GLXMA)): 20%
